From patent US20260070899A1, “N-(2-(4-CYANOTHIAZOLIDIN-3-YL)-2-OXOETHYL)-QUINOLINE-4-CARBOXAMIDES” (AstraZeneca AB, priority 2022, published 2026) come the findings set out here.

The target of test [1] is T1, Prolyl endopeptidase, Prolyl Oligopeptidase (hPREP) (Homo sapiens, UniProt P48147).
T1 sequence (P48147 1-710): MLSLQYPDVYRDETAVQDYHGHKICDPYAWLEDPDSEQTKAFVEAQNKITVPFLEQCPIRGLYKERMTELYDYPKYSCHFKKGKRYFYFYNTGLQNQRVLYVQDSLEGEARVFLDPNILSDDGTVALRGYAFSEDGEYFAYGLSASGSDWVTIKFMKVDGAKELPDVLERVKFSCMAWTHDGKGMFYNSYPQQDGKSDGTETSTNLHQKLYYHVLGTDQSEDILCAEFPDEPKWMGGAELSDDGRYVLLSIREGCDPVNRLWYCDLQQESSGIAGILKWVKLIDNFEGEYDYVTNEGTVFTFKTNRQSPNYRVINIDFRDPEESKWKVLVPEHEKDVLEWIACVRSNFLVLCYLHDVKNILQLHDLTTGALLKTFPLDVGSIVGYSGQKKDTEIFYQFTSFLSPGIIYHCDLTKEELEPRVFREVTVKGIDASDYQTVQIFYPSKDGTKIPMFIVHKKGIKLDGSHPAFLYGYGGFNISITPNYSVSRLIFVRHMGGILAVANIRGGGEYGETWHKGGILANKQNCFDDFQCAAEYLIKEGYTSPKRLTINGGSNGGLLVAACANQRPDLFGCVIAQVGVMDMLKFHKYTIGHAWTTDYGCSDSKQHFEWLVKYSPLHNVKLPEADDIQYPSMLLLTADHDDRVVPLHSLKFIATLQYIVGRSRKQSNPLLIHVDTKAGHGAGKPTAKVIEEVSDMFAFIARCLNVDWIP
Kind of test: biochemical.
Procedure: Compounds were tested in a biochemical inhibition assay using Prolyl endopeptidase, Prolyl Oligopeptidase (hPREP) enzyme at 0.6 nM FAC (R&D Systems, 4308-SE) and the substrate Z-Gly-Pro-amino-methylcoumarin (Bachem, I-1145) at 50 μM FAC. 384 Low volume black plates (Greiner #784076) were used. […] Plates were incubated for 15 min at rt in dark. 4 μL, 100 μM substrate solution (25 mM Tris HCl, 250 mM NaCl, 0.01% Triton X-100, 5 mM Glutathione, pH 7.5) was added to each well. Plates were centrifuged at 1000 rpm and incubated for 20 min at rt in dark. The plates were read on a PHERAstar® reader with excitation 340 nm and emission 460 nm. Data were analyzed in Genedata Screener®. IC50 values were determined by plotting % inhibition versus log compound concentration and using a one site dose response model.

A further test deals with T2, FAP Human Plasma (Homo sapiens, UniProt Q12884).
T2 construct: Plasma (anticoagulant K2EDTA) was used as the enzyme source; tissue AZ Biobank; host or cells: pooled human plasma (K2EDTA)
T2 sequence (Q12884 24-760 limits assumed): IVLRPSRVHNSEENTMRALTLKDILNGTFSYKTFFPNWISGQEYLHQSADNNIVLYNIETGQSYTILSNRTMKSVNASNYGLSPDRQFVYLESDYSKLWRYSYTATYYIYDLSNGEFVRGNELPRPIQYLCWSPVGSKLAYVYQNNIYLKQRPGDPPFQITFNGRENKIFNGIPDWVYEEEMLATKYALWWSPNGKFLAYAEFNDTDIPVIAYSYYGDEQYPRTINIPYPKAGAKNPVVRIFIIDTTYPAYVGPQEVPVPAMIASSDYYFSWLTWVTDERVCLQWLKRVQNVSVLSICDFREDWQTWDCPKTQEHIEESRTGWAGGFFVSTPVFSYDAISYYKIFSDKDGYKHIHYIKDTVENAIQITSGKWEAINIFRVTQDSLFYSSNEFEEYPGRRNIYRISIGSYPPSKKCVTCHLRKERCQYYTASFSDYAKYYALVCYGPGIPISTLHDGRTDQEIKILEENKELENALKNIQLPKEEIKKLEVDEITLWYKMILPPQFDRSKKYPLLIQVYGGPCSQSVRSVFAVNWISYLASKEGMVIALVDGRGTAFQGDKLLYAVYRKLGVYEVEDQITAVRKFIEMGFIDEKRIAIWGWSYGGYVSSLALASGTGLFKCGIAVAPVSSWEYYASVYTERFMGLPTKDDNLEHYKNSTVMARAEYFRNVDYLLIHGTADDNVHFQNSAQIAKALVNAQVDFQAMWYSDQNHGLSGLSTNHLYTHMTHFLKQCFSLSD
Kind of test: FAP plasma inhibition assay, human plasma. Format: biochemical. Conditions: human plasma dilution 1:40, Ala-Pro-AMC 75 μM; n = 1. Here is the method:
This assay was adapted from the method described in Example 89 for detection of FAP target engagement enzyme activity in plasma. Plasma (anticoagulant K2EDTA) was used as the enzyme source: Human plasma (Pooled from AZ Biobank) and Mouse plasma (AZ AST Biobank) and Cynomolgus plasma (BioIVT, #NHP00PLK2FNN, lot CYN222895). 384-Well black fluotrack PS plates (Greiner 781076) were used. 20 μL diluted plasma (Cynomolgus and Human plasma dilution 1:40, Mouse plasma dilution 1:67) in buffer (PBS, 0.1% BSA) was added to 0.6 μL compounds (in DMSO). Compounds were tested using 10 CR, 3 fold dilution series from 500 nM FAC. Two replicates for each assay point were run on the same plate. A fluorescence blank read was taken before substrate addition. Substrate, Ala-Pro-AMC (ARI-3144) stock solution (20 mM in DMSO) was diluted in buffer (PBS, 0.1% BSA) to 150 μM concentration and 20 μL added giving 75 μM FAC. Plates were incubated for 40 min at rt in the dark. The plates were read on a Beckman Paradigm® reader with excitation 360 nm and emission 465 nm. Data were analyzed in Excel (IDBS XLfit Add-In) using a one site dose response model (4-parameter logistic fit).

Broadly, the IC50 is the concentration that inhibits the measured activity by half. Turning to `COC(C)(C)c1ccc2nccc(C(=O)NCC(=O)N3CSC[C@H]3C#N)c2c1` [Example 18, (R)—N-(2-(4-Cyanothiazolidin-3-yl)-2-oxoethyl)-6-(2-methoxypropan-2-yl)quinoline-4-carboxamide], the IC50 in test [1] was 860 nM; against FAP Human Plasma, 1.5 nM.
For `N#C[C@@H]1CSCN1C(=O)CNC(=O)c1ccnc2ccc(C3CCCCO3)cc12` (mixture of isomers) [Example 32, N-(2-((R)-4-Cyanothiazolidin-3-yl)-2-oxoethyl)-6-((RS)-tetrahydro-2H-pyran-2-yl)quinoline-4-carboxamide] the same measures were 910 nM and 0.5 nM.
For `CO[C@H]1CC[C@H](c2ccc3nccc(C(=O)NCC(=O)N4CSC[C@H]4C#N)c3c2)CC1` (single isomer, unassigned) [Example 78, N-(2-((R)-4-Cyanothiazolidin-3-yl)-2-oxoethyl)-6-((1r,4R*)-4-methoxycyclohexyl)quinoline-4-carboxamide] the same measures were 1000 nM and 0.1 nM.
For `CC(C)(O)c1ccc2nccc(C(=O)NCC(=O)N3CSC[C@H]3C#N)c2c1` [Example 16, (R)—N-(2-(4-Cyanothiazolidin-3-yl)-2-oxoethyl)-6-(2-hydroxypropan-2-yl)quinoline-4-carboxamide] the same measures were 640 nM and 0.9 nM.
For the compound `N#C[C@@H]1CSCN1C(=O)CNC(=O)c1ccnc2ccc(C3(O)CCOCC3)cc12` [Example 15, (R)—N-(2-(4-Cyanothiazolidin-3-yl)-2-oxoethyl)-6-(4-hydroxy-tetrahydro-2H-pyran-4-yl)quinoline-4-carboxamide], the IC50 in test [1] worked out at 1100 nM; at FAP Human Plasma, 0.3 nM.
For `N#C[C@@H]1CSCN1C(=O)CNC(=O)c1ccnc2ccc(C3CCOCC3)cc12` [Example 20, (R)—N-(2-(4-Cyanothiazolidin-3-yl)-2-oxoethyl)-6-(tetrahydro-2H-pyran-4-yl)quinoline-4-carboxamide] the same measures were 1000 nM and 0.3 nM.
The corresponding values for `CCOC1(c2ccc3nccc(C(=O)NCC(=O)N4CSC[C@H]4C#N)c3c2)CCOCC1` [Example 23, (R)—N-(2-(4-Cyanothiazolidin-3-yl)-2-oxoethyl)-6-(4-ethoxytetrahydro-2H-pyran-4-yl)quinoline-4-carboxamide] are 1100 nM and 0.5 nM.
For `N#C[C@@H]1CSCN1C(=O)CNC(=O)c1ccnc2ccc(C3(C#N)CC3)cc12` [Example 70, (R)-6-(1-Cyanocyclopropyl)-N-(2-(4-cyanothiazolidin-3-yl)-2-oxoethyl)quinoline-4-carboxamide] the same measures were 120 nM and 0.7 nM.
With `CC(C)(F)COc1ccc2nccc(C(=O)NCC(=O)N3CSC[C@H]3C#N)c2c1` [Example 3, (R)—N-(2-(4-Cyanothiazolidin-3-yl)-2-oxoethyl)-6-(2-fluoro-2-methylpropoxy)quinoline-4-carboxamide], the figures for the IC50 (in test [1]; at FAP Human Plasma) were 950 nM and 0.3 nM, respectively.
